Experimental data as given in ChEMBL document CHEMBL5712093, “The histone methyltransferase SMYD2 is a novel therapeutic target for the induction of apoptosis in ovarian clear cell carcinoma cells” (Oncol Lett, 2020).

Assays:
Format in all cases: functional, cell-based
[1] = Anti-proliferative activity against human OVTOKO cells assessed as cell viability incubated for 24 hrs by CCK-8 assay
[2] = Anti-proliferative activity against human OVMANA cells assessed as cell viability incubated for 24 hrs by CCK-8 assay
[3] = tested on: TOV21G; assay: Anti-proliferative activity against human TOV-21G cells assessed as cell viability incubated for 24 hrs by CCK-8 assay

With `Cc1cn(CCN2CCN(c3ccccc3-c3cc(C#N)cc(C(=O)NCCCN4CCCC4)c3)CC2)c2ccccc12` the IC50 [1] was 950 nM, the IC50 [2] was 1170 nM and the IC50 [3] was 1200 nM.
